This assay has as its system CD8F1 mice, subcutaneous mammary adenocarcinoma, T/C%. Briefly: NCI In Vivo Anticancer Drug Screen. Data for tumor model Mammary Adenocarcinoma CD8F1 (subcutaneous) in CD8F1. The following applies: higher = larger tumour. The procedure, abridged: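 Tumor-bearing mice, transplantable model; readout survival or tumor size; value = treated (T) / vehicle control (C).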
Setting [1] is: endpoint: median tumor weight (est.), dose: 12.5 mg/kg/injection, schedule: Q07DX005 (ip), vehicle: saline.
The mark [2] stands for this setting: endpoint: median tumor weight (est.), dose: 25.0 mg/kg/injection, schedule: Q07DX005 (ip), vehicle: saline.
Setting [3] is: endpoint: median tumor weight change, dose: 500.0 mg/kg/injection, schedule: Q01DX001 (ip), vehicle: saline.
[4] abbreviates: endpoint: median tumor weight change, dose: 1000.0 mg/kg/injection, schedule: Q01DX001 (ip), vehicle: saline.

Values joined by “and” are separate entries in the source; they are usually repeats but may differ in a detail not shown here. Identical values can stand only once. Inconclusive results are not listed.

For `COc1cc(NCc2ccc3nc(N)nc(N)c3c2C)cc(OC)c1OC` (tested in a mixture with another compound), the T/C reads like this: (endpoint: median tumor weight (est.), dose: 32.0 mg/kg/injection, schedule: Q04DX007 (ip), vehicle: water) 87 % of control; (endpoint: median tumor weight (est.), dose: 46.0 mg/kg/injection, schedule: Q07DX005 (ip), vehicle: water) 24 % of control; (endpoint: median tumor weight (est.), dose: 47.4 mg/kg/injection, schedule: Q04DX007 (ip), vehicle: water) 35 % of control; (endpoint: median tumor weight (est.), dose: 70.0 mg/kg/injection, schedule: Q07DX005 (ip), vehicle: water) 27 % of control; (endpoint: median tumor weight (est.), dose: 71.1 mg/kg/injection, schedule: Q04DX007 (ip), vehicle: water) 113 % of control; (endpoint: median tumor weight (est.), dose: 105.0 mg/kg/injection, schedule: Q07DX005 (ip), vehicle: water) 24 % of control. Further, the T/C is 42 % of control (endpoint: median tumor weight (est.), dose: 106.7 mg/kg/injection, schedule: Q04DX007 (ip), vehicle: water); 13 % of control (endpoint: median tumor weight (est.), dose: 157.0 mg/kg/injection, schedule: Q07DX005 (ip), vehicle: water); 32 % of control (endpoint: median tumor weight (est.), dose: 160.0 mg/kg/injection, schedule: Q04DX007 (ip), vehicle: water).
For `FC(F)(F)c1nc2nc(Cl)c(Cl)nc2[nH]1`, the T/C (endpoint: median tumor weight change, dose: 62.5 mg/kg/injection, schedule: Q01DX001 (ip), vehicle: saline with Tween-80) was 77 % of control; the T/C (endpoint: median tumor weight change, dose: 125.0 mg/kg/injection, schedule: Q01DX001 (ip), vehicle: saline with Tween-80) was 114 % of control; the T/C (endpoint: median tumor weight change, dose: 250.0 mg/kg/injection, schedule: Q01DX001 (ip), vehicle: saline with Tween-80) is 74 % of control.
Turning to `Nc1nc(Br)nc2c1ncn2C1CC(O)C(CO)O1` (stereo not drawn), the T/C (endpoint: median tumor weight change, dose: 7.5 mg/kg/injection, schedule: Q03HX009 (ip), vehicle: saline) is 112 % of control; the T/C (endpoint: median tumor weight change, dose: 15.0 mg/kg/injection, schedule: Q03HX009 (ip), vehicle: saline) was 99 % of control; the T/C (endpoint: median tumor weight change, dose: 30.0 mg/kg/injection, schedule: Q03HX009 (ip), vehicle: saline) was 51 % of control; the T/C (endpoint: median tumor weight change, dose: 60.0 mg/kg/injection, schedule: Q03HX009 (ip), vehicle: saline) was 54 % of control; the T/C (endpoint: median tumor weight change, dose: 120.0 mg/kg/injection, schedule: Q03HX009 (ip), vehicle: saline) is 31 % of control.
For `CN1CCN(CCCN2c3ccccc3Sc3ccc(C(F)(F)F)cc32)CC1`, the T/C (endpoint: median tumor weight (est.), dose: 6.25 mg/kg/injection, schedule: Q07DX005 (ip), vehicle: saline with Tween-80) is 178 % of control; the T/C (endpoint: median tumor weight (est.), dose: 6.25 mg/kg/injection, schedule: Q07DX005 (ip), vehicle: saline) was 183 % of control; the T/C (endpoint: median tumor weight (est.), dose: 12.5 mg/kg/injection, schedule: Q07DX005 (ip), vehicle: saline with Tween-80) was 202 % of control; the T/C under setting [1] is 97 % of control; the T/C (endpoint: median tumor weight (est.), dose: 25.0 mg/kg/injection, schedule: Q07DX005 (ip), vehicle: saline with Tween-80) is 65 % of control; the T/C under setting [2] was 108 % of control. Besides, the T/C reads like this: (endpoint: median tumor weight (est.), dose: 50.0 mg/kg/injection, schedule: Q07DX005 (ip), vehicle: saline) 162 % of control; (endpoint: median tumor weight (est.), dose: 100.0 mg/kg/injection, schedule: Q07DX005 (ip), vehicle: saline with Tween-80) 95 % of control; (endpoint: median tumor weight (est.), dose: 100.0 mg/kg/injection, schedule: Q07DX005 (ip), vehicle: saline) 70 % of control.
Regarding `O=C1CCC(=O)N1CO`, the T/C by setting is: (endpoint: median tumor weight change, dose: 125.0 mg/kg/injection, schedule: Q01DX001 (ip), vehicle: saline) 97 % of control; (endpoint: median tumor weight change, dose: 250.0 mg/kg/injection, schedule: Q01DX001 (ip), vehicle: saline) 89 % of control; under setting [3], 81 % of control; under setting [4], 75 % of control.
In the case of `OC1(CSc2ccccc2)CCCCC1`, the T/C (endpoint: median tumor weight change, dose: 1000.0 mg/kg/injection, schedule: Q01DX001 (ip), vehicle: saline with Tween-80) is 13 % of control.
In the case of `CC(=O)OC1(C)CC(C)C(=O)C(C(O)CC2CC(=O)NC(=O)C2)C1` (stereo not drawn), the T/C is 57 % of control (endpoint: median tumor weight (est.), dose: 94.0 micrograms/kg/injection, schedule: Q07DX005 (ip), vehicle: saline); 34 % of control (endpoint: median tumor weight (est.), dose: 188.0 micrograms/kg/injection, schedule: Q07DX005 (ip), vehicle: saline); 37 % of control (endpoint: median tumor weight (est.), dose: 375.0 micrograms/kg/injection, schedule: Q07DX005 (ip), vehicle: saline); 32 % of control (endpoint: median tumor weight (est.), dose: 750.0 micrograms/kg/injection, schedule: Q07DX005 (ip), vehicle: saline).
As for `CN(C)CC(Cl)CCl` (stereo not drawn), the T/C (endpoint: mean tumor weight, dose: 50.0 mg/kg/injection, schedule: Q07DX009 (ip), vehicle: saline) was 39 % of control; the T/C (endpoint: mean tumor weight, dose: 100.0 mg/kg/injection, schedule: Q07DX006 (ip), vehicle: saline) is 88 % of control; the T/C (endpoint: mean tumor weight, dose: 100.0 mg/kg/injection, schedule: Q07DX009 (ip), vehicle: saline) was 94 % of control; the T/C (endpoint: mean tumor weight, dose: 200.0 mg/kg/injection, schedule: Q07DX006 (ip), vehicle: saline) was 107 % of control; the T/C (endpoint: mean tumor weight, dose: 200.0 mg/kg/injection, schedule: Q07DX009 (ip), vehicle: saline) is 24 % of control; the T/C under setting [1] was 92 % of control. In addition, the T/C is, setting by setting: under setting [2], 97 % of control and 117 % of control; (endpoint: median tumor weight (est.), dose: 200.0 mg/kg/injection, schedule: Q07DX005 (ip), vehicle: saline) 62 % of control and 73 % of control; (endpoint: median tumor weight (est.), dose: 400.0 mg/kg/injection, schedule: Q07DX005 (ip), vehicle: saline) 37 % of control.
As to `Nc1nc(/C=C(/O)c2ccccc2)c2ncn(C3OC(CO)C(O)C3O)c2n1` (stereo not drawn), the T/C (endpoint: median tumor weight change, dose: 50.0 mg/kg/injection, schedule: Q01DX001 (ip), vehicle: distilled water + Tween-80) was 91 % of control.
For the molecule `C/C=C(\C)c1cc(=O)c2c(C)cc3c(c2o1)C(=O)c1c(O)c(C2CC(C)(N(C)C)C(O)C(C)O2)cc(C2CC(N(C)C)C(O)C(C)O2)c1C3=O` (stereo not drawn), the T/C is 78 % of control (endpoint: median tumor weight change, dose: 0.16 mg/kg/injection, schedule: Q01DX001 (ip), vehicle: saline); 51 % of control (endpoint: median tumor weight change, dose: 0.31 mg/kg/injection, schedule: Q01DX001 (ip), vehicle: saline); 52 % of control (endpoint: median tumor weight change, dose: 0.62 mg/kg/injection, schedule: Q01DX001 (ip), vehicle: saline); 61 % of control (endpoint: median tumor weight change, dose: 2.5 mg/kg/injection, schedule: Q01DX001 (ip), vehicle: suspension in saline); 42 % of control (endpoint: median tumor weight change, dose: 5.0 mg/kg/injection, schedule: Q01DX001 (ip), vehicle: suspension in saline); -9 % of control (endpoint: median tumor weight change, dose: 10.0 mg/kg/injection, schedule: Q01DX001 (ip), vehicle: saline).
On to `CC(Cc1ccc(O)c(O)c1)C(C)Cc1ccc(O)c(O)c1` (stereo not drawn), for which the T/C under setting [3] is 123 % of control and the T/C under setting [4] was 57 % of control.
With `CCOC(=O)C1=C(C#N)C2(CCC(OCc3ccccc3)CC2)C(=O)O1` (stereo not drawn), the T/C is, setting by setting: (endpoint: median tumor weight change, dose: 125.0 mg/kg/injection, schedule: Q01DX001 (ip), vehicle: suspension in saline) 66 % of control; (endpoint: median tumor weight change, dose: 250.0 mg/kg/injection, schedule: Q01DX001 (ip), vehicle: suspension in saline) 63 % of control; (endpoint: median tumor weight change, dose: 500.0 mg/kg/injection, schedule: Q01DX001 (ip), vehicle: suspension in saline) 50 % of control; (endpoint: median tumor weight change, dose: 1000.0 mg/kg/injection, schedule: Q01DX001 (ip), vehicle: suspension in saline) 24 % of control.
For `O=C([CH-]C(=O)C(F)(F)F)c1ccccc1.O=C([CH-]C(=O)C(F)(F)F)c1ccccc1.O=C([CH-]C(=O)C(F)(F)F)c1ccccc1.O=C([CH-]C(=O)C(F)(F)F)c1ccccc1.[Eu+3].c1ccncc1`, the T/C reads like this: (endpoint: median tumor weight (est.), dose: 12.5 mg/kg/injection, schedule: Q07DX005 (ip), vehicle: Klucel (hydroxypropylcellulose) (HPC)) 109 % of control; (endpoint: median tumor weight (est.), dose: 25.0 mg/kg/injection, schedule: Q07DX005 (ip), vehicle: Klucel (hydroxypropylcellulose) (HPC)) 109 % of control; (endpoint: median tumor weight (est.), dose: 50.0 mg/kg/injection, schedule: Q07DX005 (ip), vehicle: Klucel (hydroxypropylcellulose) (HPC)) 103 % of control; (endpoint: median tumor weight (est.), dose: 100.0 mg/kg/injection, schedule: Q07DX005 (ip), vehicle: Klucel (hydroxypropylcellulose) (HPC)) 95 % of control; (endpoint: median tumor weight (est.), dose: 400.0 mg/kg/injection, schedule: Q07DX005 (ip), vehicle: Klucel (hydroxypropylcellulose) (HPC)) 110 % of control.
As for `CC(C)NC(=O)N(CCCCBr)N=O`, the T/C is 43 % of control (endpoint: median tumor weight change, dose: 49.37 mg/kg/injection, schedule: Q01DX001 (ip), vehicle: Klucel (hydroxypropylcellulose) (HPC)); 42 % of control (endpoint: median tumor weight change, dose: 62.0 mg/kg/injection, schedule: Q01DX001 (ip), vehicle: Klucel (hydroxypropylcellulose) (HPC)); 34 % of control (endpoint: median tumor weight change, dose: 98.75 mg/kg/injection, schedule: Q01DX001 (ip), vehicle: Klucel (hydroxypropylcellulose) (HPC)); -13 % of control (endpoint: median tumor weight change, dose: 197.5 mg/kg/injection, schedule: Q01DX001 (ip), vehicle: Klucel (hydroxypropylcellulose) (HPC)); -66 % of control (endpoint: median tumor weight change, dose: 395.0 mg/kg/injection, schedule: Q01DX001 (ip), vehicle: Klucel (hydroxypropylcellulose) (HPC)); -41 % of control (endpoint: median tumor weight change, dose: 500.0 mg/kg/injection, schedule: Q01DX001 (ip), vehicle: Klucel (hydroxypropylcellulose) (HPC)).

Source of the values: PubChem BioAssay AID220 (DTP/NCI, 2004).
